pIC50: −log10 of the molar value.
Molecular target: T1, human oxytocin receptor (Homo sapiens, UniProt P30559)
T1 construct: host or cells: CHO cells, stably transfected (pcDNA3.1 vector)
T1 sequence (P30559 1-389): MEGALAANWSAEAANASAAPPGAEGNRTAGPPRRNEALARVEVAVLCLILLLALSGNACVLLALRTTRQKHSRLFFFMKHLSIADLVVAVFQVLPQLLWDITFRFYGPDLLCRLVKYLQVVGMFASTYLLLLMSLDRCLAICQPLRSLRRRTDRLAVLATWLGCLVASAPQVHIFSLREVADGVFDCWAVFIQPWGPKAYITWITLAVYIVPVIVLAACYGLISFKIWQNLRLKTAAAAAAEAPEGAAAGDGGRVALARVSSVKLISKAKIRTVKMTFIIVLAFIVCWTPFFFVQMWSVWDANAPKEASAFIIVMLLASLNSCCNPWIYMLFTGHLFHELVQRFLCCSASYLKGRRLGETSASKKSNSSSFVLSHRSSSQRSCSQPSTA
Assay: Oxytocin binding in CHO cell membranes expressing human oxytocin receptors ([3H]oxytocin radioligand binding)
Conditions: for inhibition at 0.1 µM: 100 nM, read-out: OT % inhibition @ 100 nM
Summary of the method: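 Values are % inhibition at one concentration or nM IC50 from [3H]oxytocin displacement. Membranes from human oxytocin receptor CHO cells, 25–50 μg protein/well, 60 min at room temperature, pH 7.4 Tris buffer with protease inhibitors; bound label by filtration and scintillation counting.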

pIC50 (value in parentheses, read-out: OT (IC50)) | inhibition at 0.1 µM | SMILES
7.35 |  | Cc1cc(C(=O)N2Cc3ccc(C(=O)N4CCN(Cc5ccc[n+]([O-])c5C)CC4)n3Cc3ccccc32)ccc1-c1ccccc1C(F)(F)F [Example 3, 3-({4-[(2-Methyl-1-oxidopyridin-3-yl)methyl]piperazin-1-yl}carbonyl)-10-{[2-methyl-2′-trifluoromethyl-[1,1′-biphenyl]-4-yl]carbonyl}-10,11-dihydro-5H-pyrrolo[2,1-c][1,4]benzodiazepine]
 | 21% | O=C(c1ccc2n1Cc1ccccc1N(C(=O)c1ccc(-c3cccc4ccccc34)cc1Cl)C2)N1CCN(c2ccccn2)CC1 [Example 86, {10-[2-Chloro-4-(naphthalen-1-yl)benzoyl]-10,11-dihydro-5H-pyrrolo[2,1-c][1,4]benzodiazepin-3-yl}[4-(2-pyridinyl)-1-piperazinyl]methanone]
 | 44% | COc1ccccc1-c1ccc(C(=O)N2Cc3ccc(C(=O)NCc4ccncc4)n3Cc3ccccc32)cc1C [Example 88, 10-[(2′-Methoxy-2-methyl-[1,1′-biphenyl]-4-yl)carbonyl]-N-(4-pyridinylmethyl)-10,11-dihydro-5H-pyrrolo[2,1-c][1,4]benzodiazepine-3-carboxamide]

— US7064120B2, “Tricyclic pyridyl carboxamides and derivatives thereof tocolytic oxytocin receptor antagonists” (Wyeth, priority 2001, dated 2006)
